Biological target: T1, Acetylcholinesterase (Bos taurus, UniProt P23795)
T1 sequence (P23795 whole entry): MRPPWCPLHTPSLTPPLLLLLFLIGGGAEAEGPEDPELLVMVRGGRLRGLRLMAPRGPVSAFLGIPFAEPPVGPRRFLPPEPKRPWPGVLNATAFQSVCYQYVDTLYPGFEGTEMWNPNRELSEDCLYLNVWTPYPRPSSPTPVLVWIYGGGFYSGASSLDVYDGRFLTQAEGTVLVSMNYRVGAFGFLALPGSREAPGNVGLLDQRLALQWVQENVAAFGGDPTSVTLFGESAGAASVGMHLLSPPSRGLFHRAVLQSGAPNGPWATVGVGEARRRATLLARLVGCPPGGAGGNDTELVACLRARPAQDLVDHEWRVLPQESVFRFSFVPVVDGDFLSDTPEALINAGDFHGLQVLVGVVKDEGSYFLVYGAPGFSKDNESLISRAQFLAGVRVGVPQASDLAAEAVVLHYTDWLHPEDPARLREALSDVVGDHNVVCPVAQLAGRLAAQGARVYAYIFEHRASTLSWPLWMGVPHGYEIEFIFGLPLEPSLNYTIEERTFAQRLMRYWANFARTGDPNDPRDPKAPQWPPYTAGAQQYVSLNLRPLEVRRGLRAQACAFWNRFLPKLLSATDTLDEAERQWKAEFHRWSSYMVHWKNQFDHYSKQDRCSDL
Assay: Inhibition of acetylcholinesterase from bovine erythrocyte

SMILES | IC50 [µM]
C=C[C@@H]1[C@H]2C=C(C(=O)O)C[C@]1(N(C)C)c1ccc(=O)[nH]c1C2 [LYCOPARIN A] | > 200
C=C[C@@H]1[C@H]2C=C(C(=O)O)C[C@]1(NC)c1ccc(=O)[nH]c1C2 [LYCOPARIN B] | > 200
C=C[C@@H]1[C@H]2C=C(CO)C[C@]1(N)c1ccc(=O)[nH]c1C2 [LYCOPARIN C] | 25

Reference: ChEMBL document CHEMBL1150400, “Lycoparins A-C, new alkaloids from Lycopodium casuarinoides inhibiting acetylcholinesterase” (Bioorg Med Chem, 2008)
